# According to publication PMC8599359 (Molecular Neurobiology, 2021):
# Tests used:
# MMP-1 = target: T1, MMP-1 (Homo sapiens, UniProt P03956); assay: Fluorometric substrate assay (MMP inhibitor profiling kit); format: biochemical; settings: human recombinant MMP-1, 60 min preincubation, four-parameter fit
# T1 construct: purchased Enzo life sciences BML-AK308
# Description: (§1) Kit contained a panel of ten MMPs and a quenched fluorogenic substrate OMNIMMP® RED. Composition of a quenched fluorogenic substrate was TQ3-GABA-Pro-Cha-Abu-Smc-His-Ala-Dab(6’-TAMRA)-Ala-Lys-NH2 [TQ3 = quencher; GABA = 4-aminobutyric acid; Cha = L-cyclohexylalanine; Abu = 2-aminobutyric acid; Smc = S-methyl-L-cysteine; Dab = 2,4-diaminobutyric acid; 6’-TAMRA = 6’-tetramethylrhodamine]. Experiment was performed as per instructions provided in the manufacturer’s manual. The assays were performed in a 96-well, black, flat, microplate format. The compound NNGH was provided as a prototypic control inhibitor. […] Untreated MMPs were used as control. The experiment was performed in biological triplicates. After 60-min incubation, fluorogenic substrate OMNIMMP® RED was added to each reaction/well to start the reaction. The plate was continuously read at Ex/Em = 545/576 nm (cutoff at 570 nm) for 30 min with 1-min time intervals at constant temperature, 37 °C, using Molecular Devices SpectraMax M3 plate reader with SoftMax Pro 6.2 software.
# MMP-12 = target: T2, MMP-12 (Homo sapiens, UniProt P39900); assay: as above; format: biochemical; settings: human recombinant MMP-12, 60 min preincubation, four-parameter fit
# T2 construct: purchased Enzo life sciences BML-AK308
# T2 sequence (P39900 106-470): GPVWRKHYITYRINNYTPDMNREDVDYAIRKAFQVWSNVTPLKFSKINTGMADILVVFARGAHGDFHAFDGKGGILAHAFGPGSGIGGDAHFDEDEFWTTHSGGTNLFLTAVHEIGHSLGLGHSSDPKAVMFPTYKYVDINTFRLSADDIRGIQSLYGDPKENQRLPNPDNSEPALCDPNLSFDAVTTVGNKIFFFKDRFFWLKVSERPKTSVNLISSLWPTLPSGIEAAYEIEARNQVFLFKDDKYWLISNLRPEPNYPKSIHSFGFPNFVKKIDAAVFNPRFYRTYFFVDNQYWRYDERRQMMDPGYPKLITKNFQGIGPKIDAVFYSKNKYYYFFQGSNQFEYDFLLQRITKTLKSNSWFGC
# Description: as §1
# MMP-13 = target: T3, MMP-13 (Homo sapiens, UniProt P45452); assay: as above; format: biochemical
# T3 construct: purchased Enzo life sciences BML-AK308
# Description: as §1
# MMP-14 [1] = target: T4, MMP-14 (Homo sapiens, UniProt P50281); assay: as above; format: biochemical
# T4 construct: purchased Enzo life sciences BML-AK308
# Description: as §1
# MMP-19 = target: T5, MMP-19 (Homo sapiens, UniProt Q99542); assay: as above; format: biochemical; settings: human recombinant MMP-19, 60 min preincubation, four-parameter fit
# T5 construct: purchased Enzo life sciences BML-AK308
# T5 sequence (Q99542 98-508): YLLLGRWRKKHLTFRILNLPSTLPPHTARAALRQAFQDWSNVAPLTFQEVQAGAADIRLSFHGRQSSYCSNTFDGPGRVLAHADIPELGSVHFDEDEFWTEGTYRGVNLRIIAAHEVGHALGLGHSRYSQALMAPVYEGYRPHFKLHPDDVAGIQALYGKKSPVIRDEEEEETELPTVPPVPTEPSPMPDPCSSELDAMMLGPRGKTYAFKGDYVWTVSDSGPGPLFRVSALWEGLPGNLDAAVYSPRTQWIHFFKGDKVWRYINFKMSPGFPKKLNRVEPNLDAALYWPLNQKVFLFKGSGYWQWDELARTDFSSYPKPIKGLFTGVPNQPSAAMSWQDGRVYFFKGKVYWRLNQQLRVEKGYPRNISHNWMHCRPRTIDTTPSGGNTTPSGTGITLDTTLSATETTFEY
# Description: as §1
# MMP-3 = target: T6, MMP-3 (Homo sapiens, UniProt P08254); assay: as above; format: biochemical; settings: human recombinant MMP-3, 60 min preincubation, four-parameter fit
# T6 construct: purchased Enzo life sciences BML-AK308
# T6 sequence (P08254 100-477): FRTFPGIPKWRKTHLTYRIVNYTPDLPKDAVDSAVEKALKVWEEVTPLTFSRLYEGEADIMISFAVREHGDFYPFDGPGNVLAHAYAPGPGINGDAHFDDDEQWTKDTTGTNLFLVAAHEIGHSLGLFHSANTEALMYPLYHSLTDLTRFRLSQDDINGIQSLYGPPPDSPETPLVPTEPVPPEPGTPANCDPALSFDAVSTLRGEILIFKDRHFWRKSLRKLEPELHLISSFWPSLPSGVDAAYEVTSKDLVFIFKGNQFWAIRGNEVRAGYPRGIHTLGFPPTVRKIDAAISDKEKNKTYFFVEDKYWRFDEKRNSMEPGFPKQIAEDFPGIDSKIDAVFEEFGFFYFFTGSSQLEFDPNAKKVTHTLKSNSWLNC
# Description: as §1
# MMP-7 = target: T7, MMP-7 (Homo sapiens, UniProt P09237); assay: as above; format: biochemical; settings: human recombinant MMP-7, 60 min preincubation, four-parameter fit
# T7 construct: purchased Enzo life sciences BML-AK308
# T7 sequence (P09237 95-267): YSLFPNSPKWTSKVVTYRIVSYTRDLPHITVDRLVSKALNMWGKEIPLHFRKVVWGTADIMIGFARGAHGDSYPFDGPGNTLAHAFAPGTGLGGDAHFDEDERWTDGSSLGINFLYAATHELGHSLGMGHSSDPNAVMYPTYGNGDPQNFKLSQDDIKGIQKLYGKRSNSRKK
# Description: as §1
# MMP-8 = target: T8, MMP-8 (Homo sapiens, UniProt P22894); assay: as above; format: biochemical
# T8 construct: purchased Enzo life sciences BML-AK308
# T8 sequence (P22894 101-467): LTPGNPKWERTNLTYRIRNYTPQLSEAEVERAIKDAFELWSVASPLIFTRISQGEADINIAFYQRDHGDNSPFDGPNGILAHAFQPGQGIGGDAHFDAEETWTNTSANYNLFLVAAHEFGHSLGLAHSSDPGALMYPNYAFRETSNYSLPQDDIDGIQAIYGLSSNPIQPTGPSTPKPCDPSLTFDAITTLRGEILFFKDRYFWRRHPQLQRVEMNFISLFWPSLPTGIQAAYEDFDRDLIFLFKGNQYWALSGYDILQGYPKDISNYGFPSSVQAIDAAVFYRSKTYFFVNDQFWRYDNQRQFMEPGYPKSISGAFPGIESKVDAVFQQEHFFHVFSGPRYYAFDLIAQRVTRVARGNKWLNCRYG
# Description: as §1
# MMP-14 [2] = assay: MMP expression in embryo brain (Western blot); format: in vivo, mouse; settings: GD 16.5, DTG vs control
# Description: (§2) At GD 16.5, embryo whole brain tissues were isolated and homogenized in lysis buffer. Whole brain tissue homogenates were analyzed for expression of MMP-2, 9, and 14 using Western blot assay. Six pups were randomly selected from 6 different dams for both DTG- and vehicle-treated groups. Tissue lysates were centrifuged at 16,000 × g at 4 °C for 20 min and supernatants were collected. Total protein levels in each sample were quantitated using Pierce™ BCA Protein Assay Kit (Thermo Fisher Scientific). Fifteen micrograms of protein for each sample was ran on 10% SDS–polyacrylamide gel. Proteins were transferred to activated PVDF membrane. Membranes were blocked with 5% non-fat milk (BIO-RAD) for 1 h and incubated with individual primary antibody overnight at 4 °C on a shaker. The primary antibodies used were rabbit monoclonal anti-MMP-2 (ab181286, abcam, Cambridge, MA), rabbit polyclonal anti-MMP-9 (ab38898, abcam), rabbit monoclonal anti-MMP-14 (ab51074, abcam), rabbit monoclonal GAPDH (Cell Signaling Technology, Inc., Danvers, MA), and mouse monoclonal β-actin (Santa Cruz Biotechnology, Dallas, TX). All the primary antibodies were used at 1:2000 dilution. After overnight incubation with primary antibody, the membranes were washed with Tris-buffered saline with 0.1% Tween® 20 detergent (TBST) three times (5 min each wash). Membranes were then incubated with secondary antibody for 1 h at room temperature. The secondary antibodies used were goat anti-rabbit IgG H&L (HRP) (ab205718, abcam) and goat anti-mouse IgG H&L (HRP) (ab205719, abcam). For secondary antibodies, 1:10,000 dilutions were used. Blots were developed using SuperSignal™ West Femto Maximum Sensitivity Substrate (Thermo Fisher Scientific) and iBright 750 Imaging System. Band intensity was analyzed using ImageJ software.
# MMP-2 = assay: MMP expression in embryo brain (Western blot); format: in vivo, mouse; settings: GD 16.5, DTG vs control
# Description: as §2
# MMP-9 = assay: MMP expression in embryo brain (Western blot); format: in vivo, mouse; settings: GD 16.5, DTG vs control
# Description: as §2
# C3H/HeJ mice pups, brain = assay: Diffusion tensor imaging of pups; format: in vivo, mouse
# Description: In vivo bioimaging (diffusion tensor imaging (DTI) and magnetic resonance spectroscopy (^1H MRS)) was performed using a 7 Tesla/16 cm Bruker PharmaScan or a 7 Tesla 21 cm Bruker Biospec (Karlsure, Germany) MRI/MRS system. At PND 28–34, DTI was performed on live mice pups to determine microstructural changes. Animals from both DTG- and vehicle-treated (control) groups were scanned. Pups (male and female) were randomly selected from each dam. As described in our previous work, a 4-segment echo planar imaging (EPI) readout with a balanced, rotationally invariant and alternating polarity icosahedral scheme (12 directions) and b value = 800 s/mm^2 were utilized. Diffusion Toolkit (http://trackvis.org/dtk/) was used to calculate DTI metrics, fractional anisotropy (FA). Region of interest (ROI) analysis was performed to measure DTI metrics on hippocampus (HI), cortex (CT), striatum (ST), thalamus (TH), hypothalamus (HY), and cerebellum (CE).
# T1 sequence (P03956 100-469): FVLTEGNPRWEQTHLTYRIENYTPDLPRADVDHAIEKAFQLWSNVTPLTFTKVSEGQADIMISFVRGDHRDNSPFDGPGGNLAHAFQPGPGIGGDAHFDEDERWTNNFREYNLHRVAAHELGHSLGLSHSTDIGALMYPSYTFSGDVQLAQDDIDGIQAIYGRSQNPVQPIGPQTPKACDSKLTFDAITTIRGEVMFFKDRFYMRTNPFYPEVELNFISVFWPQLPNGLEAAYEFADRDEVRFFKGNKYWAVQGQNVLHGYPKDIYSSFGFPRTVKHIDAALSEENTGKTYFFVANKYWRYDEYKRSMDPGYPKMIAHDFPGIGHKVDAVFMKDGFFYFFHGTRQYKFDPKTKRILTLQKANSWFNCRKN
compound,measurement,setting,value
"C[C@@H]1CCO[C@H]2Cn3cc(C(=O)NCc4ccc(F)cc4F)c(=O)c(O)c3C(=O)N12 [DTG, Dolutegravir]",IC50,MMP-1,83.9 µM
same,IC50,MMP-12,131 µM
same,inhibitory effect compared to doxycycline,"MMP-13; MMP-13, 20 µM",higher inhibitory effect
same,IC50,"MMP-13; human recombinant MMP-13, 60 min preincubation, four-parameter fit",36.5 µM
same,inhibitory effect compared to doxycycline,"MMP-14 [1]; MMP-14, 20 µM",higher inhibitory effect
same,IC50,"MMP-14 [1]; human recombinant MMP-14, 60 min preincubation, four-parameter fit",10.5 µM
same,IC50,MMP-19,54 µM
same,IC50,MMP-3,60.3 µM
same,IC50,MMP-7,309 µM
same,inhibitory effect compared to doxycycline,"MMP-8; MMP-8, 20 µM",higher inhibitory effect
same,IC50,"MMP-8; human recombinant MMP-8, 60 min preincubation, four-parameter fit",12.1 µM
same,protein levels of MMP-14 in embryo brain tissue,MMP-14 [2],No significant differences
same,protein levels of MMP-2 in embryo brain tissue,MMP-2,No significant differences
same,protein levels of MMP-9 in embryo brain tissue,MMP-9,No significant differences
same,fractional anisotropy (FA) values vs control,"C3H/HeJ mice pups, brain; PND 28-34, all six brain regions (HI, CT, ST, TH, HY, CE)",significantly lower
same,fractional anisotropy (FA) values vs control,"C3H/HeJ mice pups, brain; female pups, HI",trend of decrease
same,fractional anisotropy (FA) values vs control,"C3H/HeJ mice pups, brain; female pups, TH",significant reduction
same,fractional anisotropy (FA) values vs control,"C3H/HeJ mice pups, brain; male pups, HI, CT, ST and HY",significantly reduced
same,fractional anisotropy (FA) values vs control,"C3H/HeJ mice pups, brain; male pups, TH and CE",trend of reduced FA values
